Consider one molecule from paper PMC2947747 (Chembiochem : a European journal of chemical biology, 2008).

Common to all, as to experiment: reverse glycosyl transfer
What all share (type): biochemical
Common to all, as to conditions: 1 mM GDP, 1 mM MgCl2, pH 8.0, 30 °C; reverse reaction

Experiment [1] deals with NysDI (Streptomyces noursei, UniProt Q9L4W6).
Experiment [2] concerns the target AmphDI (Streptomyces nodosus, UniProt Q93NW9).
In experiment [3] the target is NysDI-T2 (Streptomyces noursei, UniProt Q9L4W6).

Regarding `C[C@@H]1[C@H](O)[C@@H](C)/C=C/C=C/C=C/C=C/C=C/C=C/C=C/[C@H](O[C@@H]2O[C@H](C)[C@@H](O)[C@H](N)[C@@H]2O)C[C@@H]2O[C@](O)(C[C@@H](O)C[C@@H](O)[C@H](O)CC[C@@H](O)C[C@@H](O)CC(=O)O[C@H]1C)C[C@H](O)[C@H]2C(=O)O` [compound 1, amphotericin B], the “reverse glycosyl transfer (deglycosylation), RP-HPLC” value is “reaction reversibility assessed in the presence of AmphDI, NysDI and NysDI-T2” in experiment [1]; “reaction reversibility assessed in the presence of AmphDI, NysDI and NysDI-T2” in experiment [2]; “reaction reversibility assessed in the presence of AmphDI, NysDI and NysDI-T2” in experiment [3].
